{
  "source": "ChEMBL document CHEMBL1821657",
  "about": "“Tritoniopsins A-D, cladiellane-based diterpenes from the South China Sea nudibranch Tritoniopsis elegans and its prey Cladiella krempfi” (J Nat Prod, 2011)",
  "key": {"3T3-L1": {"system": "3T3-L1", "experiment": "Cytotoxicity against mouse 3T3L1 cells assessed as cell growth inhibition after 48 hrs", "type": "cell-based", "conditions": "3T3-L1, 48 h"}, "H9c2": {"system": "H9c2", "experiment": "Cytotoxicity against rat H9c2 cells assessed as cell growth inhibition after 48 hrs", "type": "cell-based", "conditions": "H9c2, 48 h"}, "Caco-2": {"system": "Caco-2", "experiment": "Cytotoxicity against human Caco2 cells assessed as cell growth inhibition after 48 hrs", "type": "functional, cell-based", "conditions": "Caco-2, 48 h"}, "HeLa": {"system": "HeLa", "experiment": "Cytotoxicity against human HeLa cells assessed as cell growth inhibition after 48 hrs", "type": "functional, cell-based"}, "C6": {"system": "C6", "experiment": "Cytotoxicity against rat C6 cells assessed as cell growth inhibition after 48 hrs", "type": "functional, cell-based"}},
  "note": "Calls of active or inactive are those of the source. No cut-off for these calls is given here.",
  "data": [
    {"smiles": "C=C1C[C@H]2O[C@H]([C@@H]3[C@@H]4C[C@@H](OC[C@@H]4C)[C@](C)(O)[C@@H]32)[C@](C)(OC(=O)CCC)CC[C@@H]1OO", "note": "[TRITONIOPSIN B]", "values": [
      {"measurement": "IC50", "setting": "3T3-L1", "value": 40, "unit": "µM"},
      {"measurement": "IC50", "setting": "H9c2", "value": 40, "unit": "µM"},
      {"measurement": "IC50", "setting": "Caco-2", "value": 40, "unit": "µM"},
      {"measurement": "growth inhibition (GI)", "setting": "HeLa", "value": "inactive"},
      {"measurement": "growth inhibition (GI)", "setting": "C6", "value": "inactive"}
    ]}
  ]
}
